Laboratory results: patent US20010039041A1, “Immunosuppressive sesbanimide compositions and methods of treatment using same” (priority 1995, published 2001)
≈ marks a conversion by molar mass, not a printed value. Where “and” joins values, the source holds several entries; their conditions need not be identical. Equal values may be shown once. Read-outs that look alike come from different tables or passages of the source.

How the values were obtained:
[1] = test system: CB6-F1 mice grafted with Balb/c splenic lymphocytes; conditions: for Alive Day 8 / Optimal Dose: GVHR; for Alive Day 8 / Index: at optimal dose; for Optimal Dose: i.p. per diem for 7 days; for Index: spleen index vs syngeneic control, >1.3 = successful graft rejection
Text: Graft-vs-Host Reaction (GVHR)
The GVHR used for in vivo screening is a modification of the Simonsen's technique. The F1 hybrid host animal is grafted with immunocompetent spleens cells from a parent strain. The host spleen cells are incompatible to grafted donor cells but are themselves not competent to react against them (shared parental genetic determinants). The rejection mechanism in this model is, therefore, from the graft toward the host. The grafted cells, via intraperitoneal injection, migrate to the host's spleen. There they proliferate in response to the difference in genetic determinants inherited from the other parental strain. The index used to measure the success of the GVHR is spleenomegally (increased spleen weight due to cellular proliferation of grafted lymphocytes). An index of 1.0 is equivalent to the spleen weight of syngeneic grafted controls. An index >1.3 (graft index) is considered to be a successful graft rejection of the recipient animal. Any sample that prevents spienomegaly (<graft index) is considered as an immunosuppressive active. Likewise, enhancement of splenomegaly (>graft index) is due either to immunostimulatory synergy of the response or nonspecific immunostimulation. This assay is a cell-mediated type of response and is the direct in vivo correlate of the MLR.
The GVHR is widely used as an in vivo model in transplantation research laboratories. As in models for delayed sensitivity and allograft rejection, it also has clinical implications, especially in bone marrow transplantation. In this situation, immunocompetent lymphocytes transferred with the transplanted bone marrow cells can recirculate into the host bone marrow. These cells from the graft can react against the host (i.e., graft-vs-host disease) with deleterious consequences.
The highest test dose is selected from a previously determined maximum tolerated dose (MTD) resulting from a once only intraperitoneal (i.p.) injection of two animals/dose (e.g., 400, 100, 40 and 10 mg/kg) These animals are followed for five days to allow for possible toxic side effects of the test compound.
In the GVHR, male, CB6-F1 mice (H2^d+H2^b) are grafted by i.p. injection of 50×106 Balb/c (H2^d) splenic lymphocytes conditioned in high-glucose (4500 mg/L) Dulbecco's modified Eagles medium. […] Grafted positive controls, nongrafted negative controls and syngeneic grafted animals all receive vehicle i.p. injections during this time. A standard of cyclophosphamide (200 mg/kg) is used. Experimental animals are sacrificed on D8 and spleens removed. The data is reported as a spleen index compared to the weight of the syngeneic control spleen—both corrected for the total body weights of the animals. In addition, the spleens are homogenized and the lymphocytes enumerated and viabilities determined. The data from both determinations are also expressed as a percent immunomodulation of the positive controls. all data is corrected for nonspecific effects measured from nongrafted animals. Moribund animals are sacrificed immediately.

[2] = test system: mixed lymphocytes from Balb/c (H-2d) and C57BI/6 (H-2b) mice; test: Murine Mixed Lymphocyte Reaction (MLR), 3H-thymidine incorporation; format: cell-based; conditions: for IC50: Mus musculus, Lymphocyte; for Index Cytotox./Activity: ratio LcV IC50 / MLR IC50
Procedure: Mixed Lymphocyte Reaction (MLR)
The MLR is an in vitro test of cellular immunity in which murine lymphocytes from genetically dissimilar animals are cocultured to mutually induce cell proliferation (i.e., two-way MLR method). Mixed cell suspensions, together with the test compound, are incubated for 96 hours and subsequently pulsed for 15 hours with tritiated-thymidine (3H-Thy), a radioisotopically labelled nucleic acid. Tritiated-thymidine is incorporated into the DNA of proliferating cells. Data from the MLR is generated as dpm of radioactivity which is then expressed as a percentage of cellular activity, relative to control, using the following reduced formula: [formula]
A 50% inhibitory concentration (IC50) value was interpolated for sesbanimide containing fractions tested. A ratio between cytotoxicity, as determined from the LcV described below, and activity in the MLR is also presented. A high ratio distinguishes noncytotoxic immunosuppression from general cytotoxicity.
Reconstituted extract (10 μl) is added in two sets of duplicates into wells of a 96-well microtiter plate and evaporated to dryness at room temperature. […] To the other set of sample duplicates is added complete media without cells so as to provide for background color control data. All plated are incubated in a 5% CO2 incubator for 96 hours and pulsed for 15 hours with 100 μl containing 1 μCi/well tritiated-thymidine (^3H-Thy). The plates are harvested onto glass fiber filter discs using an INOTECH harvester. The filter discs are counted directly using an INOTECH dry scintillation counter. The activity of the discs are calculated as a relative proliferative percent of a mean control value as described above.

[3] = Lymphocyte Viability / Cytotoxicity Assay (LcV), MTT; format: cell-based, murine; conditions: Balb/c, mouse, murine lymphocytes (Balb/c); text summary of Table 4
Procedure: (§1) Lymphocyte Cytotoxicity (LcV) Assay
(§2) The LCV is a in vitro cytotoxicity assay for murine lymphocytes designed by the investigator. The LCV is similar to the MLR with the exception that only one cell population (Balb/c) is incubated with the test compound to assess cytotoxicity as distinct from the antiproliferative effects of a test compound. That is, unlike the unambiguous determination of immunostimulation from MLR data, a judgement of immunosuppression can not be immediately interpreted. Cytotoxicity (e.g., due to direct cell lysis) from a compound can occur which would alter viability determinations inherent in the generation of MLR data. […] The percent viable cells is determined by the MTT-thiazolyl blue method after a similar incubation to the MLR of lymphocytes with the test sample. MTT is a substrate converted by mitochoridrial enzymes in living cells to a purple, water-insoluble, formazan crystal. If there is no significant reduction in cell viability, as determined by this detection method, then damaged cells are probably not present for low data values generated in the MLR. Colorimetric data from the LCV is calculated as a percentage of viability, relative to control, using the following formula: [formula]
(§3) A 50% viability, or 50% cytotoxicity, (IC50) value was interpolated for sesbanimide containing fractions tested.
(§4) Lymphocytes are prepared as described above for the MLR with the exception that cells from only one murine strain are prepared (BLAB/c). Reconstituted extract (10 μl) is added in two sets of duplicates into wells of a 96-well microtiter plate and evaporated to dryness at room temperature. Lymphocytes (2.5×10^6 cells/ml) are added to one set of duplicates and to wells containing no sample. Media containing no cells are added to the other set of duplicates to provide background color control data. Plated are incubated in a 5% CO2 incubator for 4 hours and pulsed with MTT-thiazolyl blue for 6-8 hours.

[4] = test system: murine lymphocytes (Balb/c); test: as above; format: cell-based; conditions: Balb/c lymphocytes, MTT viability (cytotoxicity)
Procedure: as §1, §2, §3, §4

[5] = Toxicology (MTD, LD50) in mice; format: in vivo, mouse; conditions: mouse, in vivo; CD-1 or CB6F1 mice
Procedure: (§5) The MTD establishes the parameters to establish in vivo dosages initiated for studying the Graft-v-Host reaction and skin grafting. The Swiss conventional mouse (Charles River CD-1) is used in a weight range from 18-30 g.
(§6) A saline solution containing 5% non-denatured EtOH and a drop of Tween-80 detergent is used a vehicle for dilution. Stirring and sonication are utilized to effect solution or suspension of the composition. The composition is injected within one hour of preparation. Animals are observed for five days (MTD) after injection for toxic symptoms and/or death. Group weights are taken D0 and D5. Surviving animals are sacrificed on D5 (MTD). A ‘Daily Logsheet’ used in the toxicity studies is appended.

[6] = test system: CD-1 or CB6F1 Mice; test: Toxicology (MTD, LD50) in mice; format: in vivo, mouse
Procedure: as §5, §6

[7] = test system: Agrobacterium species strain PH-103; test: Antibiotic sensitivity (Difco sensitivity discs); format: cell-based, Agrobacterium sp.; conditions: strain PH-103, ATCC 231 basal medium, 27° C.
Procedure: The culture was incubated at 27° C. and records of the results were made after suitable incubation times. All media were prepared with 2.7% Instant Ocean Salts and pH was approximately neutral (7-7.4). The description of the culture and test results are as follows: […]

O=P1(N(CCCl)CCCl)NCCCO1 (stereo not drawn) [Cyclophosphamide, cyclophosphamide]
Alive Day 8 [1]: 100% and 60%
Optimal Dose [1]: 200.0 mg/kg
Index [1]: 0.23 and 0.28

C=C1COC(O)(C2OCOC(C3CC(=O)NC(=O)C3)C2O)C1C (stereo not drawn) [Sesbanimide, sesbanimide]
separation of cytotoxicity to biological activity ([2]; LcV vs MLR): > 3 log
IC50 ([2]; in vitro cell-mediated immune response, text summary of Table 4, read-out: biological activity IC50): 0.15 to 3.6 ng/mL (≈ 0.000458 to 0.011 µM)
IC50 ([2]; murine two-way MLR, 96 h incubation, 15 h 3H-Thy pulse, read-out: MLR IC50): 0.15 ng/mL (≈ 0.000458 µM)
Index Cytotox./Activity [2]: 2,777
IC50 at 4 h [3]: 0.417 to 3.6 µg/mL (≈ 1.27 to 11 µM)
IC50 ([4]; Mus musculus, Lymphocyte): 0.417 µg/mL (≈ 1.27 µM)
LD50 at 7 days [5]: 0.805 mg/kg
Maximum Tolerated ([6]; CD-1 or CB6F1 mice): 0.56 mg/kg
Alive Day 5 ([6]; at maximum tolerated dose, CD-1 or CB6F1 mice): 100%
LD50 determination ([6]; between 1.05 and 0.56 mg/kg/total dose, QD 1-7 experiment in CB6F1 mice): 0.805 mg/kg/total dose
toxicity ([6]; pure compound at 56, 10.5 and 5.6 mg/kg): toxic
total dose showing no toxicity ([6]; pure compound, in vivo): ≤ 0.56 mg/kg
Alive Day 8 [1]: 40%
Optimal Dose [1]: 0.2 mg/kg
Index [1]: 0.92

CCn1cc(C(=O)O)c(=O)c2ccc(C)nc21 [nalidixic acid]
Antibiotic sensitivity [7]: Sensitive

CN[C@H](CC(C)C)C(=O)N[C@H]1C(=O)N[C@@H](CC(N)=O)C(=O)N[C@H]2C(=O)N[C@H]3C(=O)N[C@H](C(=O)N[C@H](C(=O)O)c4cc(O)cc(O)c4-c4cc3ccc4O)[C@H](O)c3ccc(c(Cl)c3)Oc3cc2cc(c3O[C@@H]2O[C@H](CO)[C@@H](O)[C@H](O)[C@H]2O[C@H]2C[C@](C)(N)[C@H](O)[C@H](C)O2)Oc2ccc(cc2Cl)[C@H]1O [vancomycin]
Antibiotic sensitivity [7]: resistant

polymyxin
Antibiotic sensitivity [7]: resistant

sesbanimide
MLR IC50 ([2]; murine two-way MLR, 96 h incubation, 15 h 3H-Thy pulse): <7.5 ng/mL
Index Cytotox./Activity [2]: >1,746
LcV IC50 [4]: 13.100 µg/mL
